Data reported in article PMC12131194, “Rational design, synthesis, and evaluation of novel polypharmacological compounds targeting NaV1.5, KV1.5, and K2P channels for atrial fibrillation” (The Journal of Biological Chemistry, 2025).

How the values were obtained:
Kir2.1 = biological target: T1, Kir2.1 (Rattus norvegicus, UniProt Q64273); assay: TEVC selectivity in X. laevis oocytes, Kir2.1; assay type: cell-based; conditions: mean ± SD, n = 3, read-out: Effect on Kir2.1 (inhibition)
T1 construct: Kir2.1 (KCNJ2, NM_017296); expressed in transfected cells; host or cells: Xenopus laevis oocytes injected with cRNA
T1 sequence (Q64273 1-427): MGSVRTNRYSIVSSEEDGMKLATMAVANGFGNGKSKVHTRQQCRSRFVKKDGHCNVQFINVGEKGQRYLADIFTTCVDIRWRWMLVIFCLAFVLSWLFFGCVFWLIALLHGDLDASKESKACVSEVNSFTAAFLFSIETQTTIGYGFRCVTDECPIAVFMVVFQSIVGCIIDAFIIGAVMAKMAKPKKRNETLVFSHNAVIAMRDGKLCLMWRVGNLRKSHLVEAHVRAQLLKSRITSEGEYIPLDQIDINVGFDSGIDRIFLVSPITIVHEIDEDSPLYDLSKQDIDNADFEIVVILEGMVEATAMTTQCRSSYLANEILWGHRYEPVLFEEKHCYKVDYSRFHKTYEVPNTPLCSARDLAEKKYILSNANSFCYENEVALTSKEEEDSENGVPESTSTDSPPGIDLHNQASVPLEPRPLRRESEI
Description: After confirming compound 6f simultaneous blockade of TASK-1, KV1.5, and NaV1.5, other cardiac channels (Kir2.1, TREK-1, TASK-4) were tested for selectivity at 100 μM (Fig. 8).
To obtain X. laevis oocytes, the frogs were anesthetized with 2 g/L of tricaine methanesulfonate, and the ovarian lobes were mechanically separated with forceps. The oocytes were incubated for 120 min in an OR2 solution containing in mM: NaCl 82.5, KCl 2, MgCl2 1, HEPES 5 (pH 7.5) supplemented with 2 mg/ml of collagenase II (Sigma) to remove residual connective tissue and obtain individual oocytes. […]
In order to overexpress the channel in the oocyte, each of the channels to be measured was subcloned (complementary DNA (cDNA); human TASK-1 (KCNK3, NM_002246), h KV1.5 (KCNA5, NM_002234), h NaV1.5 (hH1, M77235), TASK-4/TALK-2 (KCNK17, NM_AF358910), TREK-1 (KCNK2, AF004711) and Kir2.1 (KCNJ2, NM_017296) into pSGEM, pBF1 or pSP64 expression vector, and the cDNA was linearized with NheI or MluI. Complementary RNA (cRNA) was synthesized with the mMESSAGE mMACHINE-Kit (Ambion). The quality of the cRNA was tested on an agarose gel by electrophoresis. cRNA was quantified using a UV-Vis spectrophotometer (NanoDrop 2000). […] After this time, the overexpression of each channel was monitored through electrophysiology. […]

h NaV1.5 = biological target: T2, h NaV1.5 (Homo sapiens, UniProt Q14524, R1027Q); assay: TEVC recordings in X. laevis oocytes, NaV1.5; assay type: cell-based; conditions: for Ionic current block INa: from inhibition curves, used for simulation
T2 construct: expressed in transfected cells; host or cells: Xenopus laevis oocytes injected with cRNA
Description: To obtain X. laevis oocytes, the frogs were anesthetized with 2 g/L of tricaine methanesulfonate, and the ovarian lobes were mechanically separated with forceps. The oocytes were incubated for 120 min in an OR2 solution containing in mM: NaCl 82.5, KCl 2, MgCl2 1, HEPES 5 (pH 7.5) supplemented with 2 mg/ml of collagenase II (Sigma) to remove residual connective tissue and obtain individual oocytes. Subsequently, the oocytes were washed with a ND96 solution containing in mM: NaCl 96, KCl 2, CaCl2 1.8, MgCl2 1, HEPES 5 (pH 7.5, adjusted with NaOH) and stored at 18 °C in ND96 solution supplemented with 1 ml of gentamicin (50 mg/L), sodium pyruvate (275 mg/L) and (90 mg/L) theophylline (inhibits further oocyte maturation) before and after RNA injection.
In order to overexpress the channel in the oocyte, each of the channels to be measured was subcloned (complementary DNA (cDNA); human TASK-1 (KCNK3, NM_002246), h KV1.5 (KCNA5, NM_002234), h NaV1.5 (hH1, M77235), TASK-4/TALK-2 (KCNK17, NM_AF358910), TREK-1 (KCNK2, AF004711) and Kir2.1 (KCNJ2, NM_017296) into pSGEM, pBF1 or pSP64 expression vector, and the cDNA was linearized with NheI or MluI. Complementary RNA (cRNA) was synthesized with the mMESSAGE mMACHINE-Kit (Ambion). The quality of the cRNA was tested on an agarose gel by electrophoresis. cRNA was quantified using a UV-Vis spectrophotometer (NanoDrop 2000). Subsequently, the channel was transfected in the oocytes in stages V and VI, for which […] (TASK-1, KV1.5 or TREK-1), 10 ng (NaV1.5 or TASK-4) o 2.5 ng (Kir2.1) per oocyte of cRNA was injected with a NanojectII microinjector (Drummond Scientific). The oocytes were stored in 24-well plates for 24 to 48 h at 18 °C. After this time, the overexpression of each channel was monitored through electrophysiology.
Two-electrode voltage clamp measurements were performed 24 or 48 h after cRNA injection at room temperature (20–22 °C) in ND96 recording solution with a TurboTEC-10CD (npi) amplifier and a Digidata 1550B (for TASK-1 and KV1.5) and 1440A (for NaV1.5) A/D converter from Axon Instruments. Micropipettes were fabricated from GB 150 TF-8P borosilicate glass capillaries (Science Products) elongated in a DMZ-Universal Puller (Zeitz, Germany). […] ND96 was used as bath solution. Data acquisition was performed using Clampex 10 software (Axon Instruments), and data were analyzed with ClampFit 10 (Axon Instruments) and Origin 7 (Origin Lab Corporation).
For compound inhibition testing, from a holding potential of −80 mV a first test pulse to 0 mV of 1 s duration was followed by a repolarization step at −80 mV for 1 s, directly followed by another 1 s test pulse at +40 mV. The sweep time interval was 10 s for KV1.5 and TASK-1 channels. For the NaV1.5 channel, the block was analyzed with voltage steps from a holding potential of −80 mV. A first depolarizing pulse to −30 mV of 50 ms duration was applied, followed by a 5 ms step to −80 mV. The sweep time interval was 5 s. The compounds were applied at different concentrations to determine the half-maximal inhibitory concentration (IC50), using a fit to the Hill equation.
To test for a putative voltage-dependence of the block by the compound 6f in KV1.5, a 1.5 s voltage step protocol from −80 to +80 mV with +20 mV increments was used. The holding potential was −80 mV and the sweep time interval was 10 s. Currents were analyzed at the end of the voltage pulse. For TASK-1, voltage-dependence of block was probed using a high-potassium solution (KD96) containing in mM: KCl 96, NaCl 2, CaCl2 1.8, MgCl2 1, HEPES 5, (pH 7.5, adjusted with KOH). From a holding potential of 0 mV, voltage was stepped from −80 mV to +80 mV for 1.5 s in +20 mV steps every 10 s. To determine the current-voltage relationship of the NaV1.5 channel, the voltage was stepped for 50 ms from a holding potential of −80 mV to −70 mV to +80 mV in +10 mV increments every 5 s. The peak currents were subsequently plotted against the respective applied voltages.

T2 sequence (Q14524 whole entry R1027Q): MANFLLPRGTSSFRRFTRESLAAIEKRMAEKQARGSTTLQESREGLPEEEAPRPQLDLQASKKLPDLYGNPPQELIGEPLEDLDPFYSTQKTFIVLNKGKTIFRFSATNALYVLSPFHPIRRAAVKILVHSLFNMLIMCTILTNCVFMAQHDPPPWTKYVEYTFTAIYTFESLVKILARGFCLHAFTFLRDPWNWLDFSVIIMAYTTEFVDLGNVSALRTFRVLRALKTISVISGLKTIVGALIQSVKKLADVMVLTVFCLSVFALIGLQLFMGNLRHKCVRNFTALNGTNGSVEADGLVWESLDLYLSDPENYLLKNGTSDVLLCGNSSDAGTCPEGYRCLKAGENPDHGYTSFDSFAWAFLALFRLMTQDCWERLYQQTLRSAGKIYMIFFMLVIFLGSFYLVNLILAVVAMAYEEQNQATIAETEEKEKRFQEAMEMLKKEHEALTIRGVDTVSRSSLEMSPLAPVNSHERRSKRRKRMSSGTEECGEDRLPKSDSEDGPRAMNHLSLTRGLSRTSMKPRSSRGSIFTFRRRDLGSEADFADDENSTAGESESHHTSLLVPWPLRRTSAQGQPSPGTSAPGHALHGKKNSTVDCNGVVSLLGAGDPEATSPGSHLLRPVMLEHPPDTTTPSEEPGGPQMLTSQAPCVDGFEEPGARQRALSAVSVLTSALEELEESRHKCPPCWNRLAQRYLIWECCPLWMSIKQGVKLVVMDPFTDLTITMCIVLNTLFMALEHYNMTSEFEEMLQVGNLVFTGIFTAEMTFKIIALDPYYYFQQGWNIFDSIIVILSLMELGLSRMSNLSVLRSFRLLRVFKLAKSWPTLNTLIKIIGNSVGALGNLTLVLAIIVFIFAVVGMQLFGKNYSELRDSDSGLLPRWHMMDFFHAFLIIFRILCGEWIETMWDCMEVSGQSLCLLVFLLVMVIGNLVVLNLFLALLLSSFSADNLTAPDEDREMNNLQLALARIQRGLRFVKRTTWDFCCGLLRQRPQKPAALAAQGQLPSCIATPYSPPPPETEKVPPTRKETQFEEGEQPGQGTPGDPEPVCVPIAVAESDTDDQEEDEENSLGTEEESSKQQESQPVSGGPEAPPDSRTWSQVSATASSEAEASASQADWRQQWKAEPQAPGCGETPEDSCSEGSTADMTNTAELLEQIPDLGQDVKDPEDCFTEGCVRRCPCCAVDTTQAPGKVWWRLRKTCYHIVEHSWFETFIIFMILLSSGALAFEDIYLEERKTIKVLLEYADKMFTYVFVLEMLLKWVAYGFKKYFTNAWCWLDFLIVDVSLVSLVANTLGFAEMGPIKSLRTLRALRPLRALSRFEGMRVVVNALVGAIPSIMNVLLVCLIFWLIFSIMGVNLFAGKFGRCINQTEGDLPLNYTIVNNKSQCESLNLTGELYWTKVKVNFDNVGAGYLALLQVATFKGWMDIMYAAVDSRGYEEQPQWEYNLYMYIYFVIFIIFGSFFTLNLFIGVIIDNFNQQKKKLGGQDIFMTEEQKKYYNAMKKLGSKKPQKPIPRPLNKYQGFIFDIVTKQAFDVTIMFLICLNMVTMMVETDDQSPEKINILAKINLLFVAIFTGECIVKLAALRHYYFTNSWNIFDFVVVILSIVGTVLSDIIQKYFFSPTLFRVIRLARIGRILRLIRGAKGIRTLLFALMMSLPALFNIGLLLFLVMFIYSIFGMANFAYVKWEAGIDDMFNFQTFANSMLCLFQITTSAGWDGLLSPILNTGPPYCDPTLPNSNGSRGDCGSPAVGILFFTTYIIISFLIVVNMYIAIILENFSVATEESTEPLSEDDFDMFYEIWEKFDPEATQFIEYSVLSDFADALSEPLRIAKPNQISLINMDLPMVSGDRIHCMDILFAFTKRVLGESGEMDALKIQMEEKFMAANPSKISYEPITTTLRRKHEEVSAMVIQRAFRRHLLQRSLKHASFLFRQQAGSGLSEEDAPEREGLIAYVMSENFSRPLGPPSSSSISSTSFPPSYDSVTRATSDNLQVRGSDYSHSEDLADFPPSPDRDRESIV

SMILES: CCCCN(CCCC)CC(=O)Nc1ccc(OC)cc1OC [Compound 6f, 2-(dibutylamine)-N-(2,4-dimethoxiphenyl)acetamide]
- inhibition at 100 µM (Kir2.1): -1.01%
- Ionic current block INa (h NaV1.5; 1 μM): 16%
- Ionic current block INa (h NaV1.5; 10 μM): 30%
- Ionic current block INa (h NaV1.5; 100 μM): 65%
- inhibition at 100 µM (h NaV1.5; 100 μM, −30 mV, oocytes, mean ± SD): 62.4 ± 20.6%
- Voltage-dependence of block of NaV1.5 (h NaV1.5; oocytes, 100 μM): small but significant variations
- Frequency-dependent inhibition of NaV1.5 (h NaV1.5; oocytes, 100 μM, 1, 2 and 3 Hz): did not observe a significant frequency-dependent inhibition
